We go through 14 compounds from patent US10011595B2 (Merck Sharp & Dohme Corp., priority 2014, dated 2018).

The IC50 is the concentration at which inhibition is half-maximal.

The assay addresses human orexin-2 receptor (Homo sapiens (Human), UniProt O43614). Description: FLIPR Ca2+ Flux Assay, orexin-2 receptor. Type of assay: cell-based. The conditions noted are these: CHO cells expressing the human orexin-2 receptor; agonist 70 pM Ala-6,12 orexin-A; read-out: hOX2R FLIPR IC50. On the procedure:
In a typical experiment the OX1 and OX2 receptor antagonistic activity of the compounds of the present invention was determined in accordance with the following experimental method. For intracellular calcium measurements, Chinese hamster ovary (CHO) cells expressing the rat orexin-1 receptor or the human orexin-2 receptor, are grown in Iscove's modified DMEM containing 2 mM L-glutamine, […], 1% hypoxanthine-thymidine supplement, 100 U/ml penicillin, 100 μg/ml streptomycin and 10% heat-inactivated fetal calf serum (FCS). The cells are seeded at 20,000 cells/well into Becton-Dickinson black 384-well clear bottom sterile plates coated with poly-D-lysine. All reagents were from GIBCO-Invitrogen Corp. The seeded plates are incubated overnight at 37° C. and 5% CO2. Ala-6,12 human orexin-A as the agonist is prepared as a 1 mM stock solution in 1% bovine serum albumin (BSA) and diluted in assay buffer (HBSS containing 20 mM HEPES, 0.1% BSA and 2.5 mM probenecid, pH7.4) for use in the assay at a final concentration of 70 pM. Test compounds are prepared as 10 mM stock solution in DMSO, then diluted in 384-well plates, first in DMSO, then assay buffer. On the day of the assay, cells are washed 3 times with 100 μl assay buffer and then incubated for 60 min (37° C., 5% CO2) in 60 μl assay buffer containing 1 μM Fluo-4AM ester, 0.02% pluronic acid, and 1% BSA. The dye loading solution is then aspirated and cells are washed 3 times with 100 μl assay buffer. 30 μl of that same buffer is left in each well. Within the Fluorescent Imaging Plate Reader (FLIPR, Molecular Devices), test compounds are added to the plate in a volume of 25 μl, incubated for 5 min and finally 25 μl of agonist is added. Fluorescence is measured for each well at 1 second intervals for 5 minutes and the height of each fluorescence peak is compared to the height of the fluorescence peak induced by 70 pM Ala-6,12 orexin-A with buffer in place of antagonist. For each antagonist, IC50 value (the concentration of compound needed to inhibit 50% of the agonist response) is determined. Alternatively, compound potency can be assessed by a radioligand binding assay (described in Bergman et. al. Bioorg. Med. Chem. Lett. 2008, 18, 1425-1430) in which the inhibition constant (Ki) is determined in membranes prepared from CHO cells expressing either the OX1 or OX2 receptor. The intrinsic orexin receptor antagonist activity of a compound which may be used in the present invention may be determined by these assays.
On the technique in general: Calcium flux is commonly read through the fluorescence of an indicator in the cells.

Structures are written as SMILES.

Chain of human orexin-2 receptor (O43614 whole entry): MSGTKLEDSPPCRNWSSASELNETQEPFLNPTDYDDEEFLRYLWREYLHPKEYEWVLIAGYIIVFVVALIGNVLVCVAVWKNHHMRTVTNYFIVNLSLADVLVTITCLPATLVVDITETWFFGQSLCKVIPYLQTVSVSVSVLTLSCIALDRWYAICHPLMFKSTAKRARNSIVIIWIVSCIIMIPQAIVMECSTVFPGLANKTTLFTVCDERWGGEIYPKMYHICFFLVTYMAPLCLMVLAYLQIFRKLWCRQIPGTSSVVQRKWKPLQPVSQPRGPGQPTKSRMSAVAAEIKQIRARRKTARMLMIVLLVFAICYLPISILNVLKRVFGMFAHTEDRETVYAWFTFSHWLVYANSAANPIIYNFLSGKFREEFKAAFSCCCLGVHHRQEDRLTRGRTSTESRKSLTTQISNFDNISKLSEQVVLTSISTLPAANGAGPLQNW

With `CCN(CCN(C)c1cc(C#N)ccn1)C(=O)c1ccccc1-c1cnccn1` [Example F-11, N-{2-[(4-cyanopyridin-2-yl)(methyl)amino]ethyl}-N-ethyl-2-pyrazin-2-ylbenzamide], the IC50 was found to be 23 nM. With `CCCc1ccccc1C(=O)N(CC)CCN(C)c1nc(C)cc(C)n1` [Example B-16, N-{2-[(4,6-dimethylpyrimidin-2-yl)(methyl)amino]ethyl}-N-ethyl-2-propylbenzamide] the figure was 19.9 nM; with `CCN(CCN(C)c1nc(C)cc(C)n1)C(=O)c1ccccc1CC(F)F` [Example B-23, 2-(2,2-difluoroethyl)-N-{2-[(4,6-dimethylpyrimidin-2-yl)(methyl)amino]ethyl}-N-ethylbenzamide], 94.9 nM. With `CCN(CCN(C)c1cccc(C(C)(C)O)n1)C(=O)c1ccccc1-n1cccn1` [Example I-10, N-ethyl-N-(2-((6-(2-hydroxypropan-2-yl)pyridin-2-yl)(methyl)amino)ethyl)-2-(1H-pyrazol-1-yl)benzamide] the figure was 93.3 nM. Under `CCN(CCN(C)c1cccc(C(C)(C)O)n1)C(=O)c1cccnc1CC(F)(F)F` [Example I-19, N-ethyl-N-(2-((6-(2-hydroxypropan-2-yl)pyridin-2-yl)(methyl)amino)ethyl)-2-(2,2,2-trifluoroethyl)nicotinamide] stands 2270 nM. For the compound `CCN(CCN(C)c1nc(C)cc(C)n1)C(=O)c1ncccc1-c1ccccc1` [Example B-27, N-{2-[(4,6-dimethylpyrimidin-2-yl)(methyl)amino]ethyl}-N-ethyl-3-phenylpyridine-2-carboxamide], the IC50 came to 12.5 nM. Under `CCN(CCN(C)c1cc(C#N)ccn1)C(=O)c1ccccc1-n1nccn1` [Example E-1, N-(2-((4-cyanopyridin-2-yl)(methyl)amino)ethyl)-N-ethyl-2-(2H-1,2,3-triazol-2-yl)benzamide] stands 14.5 nM; under `CCN(CCN(C)c1cccc(C(C)(C)O)n1)C(=O)c1ncccc1-n1nccn1` [Example I-9, N-ethyl-N-(2-((6-(2-hydroxypropan-2-yl)pyridin-2-yl)(methyl)amino)ethyl)-3-(2H-1,2,3-triazol-2-yl)picolinamide], 312 nM; under `CCN(CCN(C)c1cc(C#N)ccn1)C(=O)c1ccccc1COC` [Example F-16, N-{2-[(4-cyanopyridin-2-yl)(methyl)amino]ethyl}-N-ethyl-2-(methoxymethyl)benzamide], 688 nM. `CCN(CCN(C)c1cc(C#N)ccn1)C(=O)c1cc(C)ccc1-n1nccn1` [Example F-20, N-{2-[(4-cyanopyridin-2-yl)(methyl)amino]ethyl}-N-ethyl-5-methyl-2-(2H-1,2,3-triazol-2-yl)benzamide]: the IC50 was 16.2 nM. With `CCN(CCN(C)c1nccc(C(C)(C)O)n1)C(=O)c1ccccc1CC(F)F` [Example H-24, 2-(2,2-difluoroethyl)-N-ethyl-N-(2-((4-(2-hydroxypropan-2-yl)pyrimidin-2-yl)(methyl)amino)ethyl) benzamide] the figure was 20.6 nM; with `CCOc1nc2cccc(C(=O)N(CC)CCN(C)c3cc(C#N)ccn3)c2[nH]1` [Example F-19, N-{2-[(4-cyanopyridin-2-yl)(methyl)amino]ethyl}-2-ethoxy-N-ethyl-1H-benzimidazole-7-carboxamide], 10000 nM; with `CCN(CCN(C)c1nccc(C(C)(C)O)n1)C(=O)c1ccccc1OC(F)F` [Example H-18, 2-(difluoromethoxy)-N-ethyl-N-(2-((4-(2-hydroxypropan-2-yl)pyrimidin-2-yl)(methyl)amino)ethyl) benzamide], 49.3 nM.

As for `CCN(CCN(C)c1nccc(C(C)(C)O)n1)C(=O)c1ccccc1-n1ncnn1` [Example H-29, N-ethyl-N-(2-((4-(2-hydroxypropan-2-yl)pyrimidin-2-yl)(methyl)amino)ethyl)-2-(2H-tetrazol-2-yl)benzamide], the IC50 turned out to be 17 nM.
